Measurements: patent US8044079B2, “Substituted oxindole derivatives, medicaments containing said derivatives and use thereof” (Abbott GmbH & Co. KG, priority 2005, dated 2011)

Target: T1, human vasopressin V1b receptor (Homo sapiens, UniProt P47901)
T1 construct: expressed in transfected cells; host or cells: CHO-K1 (cell line hV1b_3H2_CHO), membrane preparation
T1 sequence (P47901 1-424): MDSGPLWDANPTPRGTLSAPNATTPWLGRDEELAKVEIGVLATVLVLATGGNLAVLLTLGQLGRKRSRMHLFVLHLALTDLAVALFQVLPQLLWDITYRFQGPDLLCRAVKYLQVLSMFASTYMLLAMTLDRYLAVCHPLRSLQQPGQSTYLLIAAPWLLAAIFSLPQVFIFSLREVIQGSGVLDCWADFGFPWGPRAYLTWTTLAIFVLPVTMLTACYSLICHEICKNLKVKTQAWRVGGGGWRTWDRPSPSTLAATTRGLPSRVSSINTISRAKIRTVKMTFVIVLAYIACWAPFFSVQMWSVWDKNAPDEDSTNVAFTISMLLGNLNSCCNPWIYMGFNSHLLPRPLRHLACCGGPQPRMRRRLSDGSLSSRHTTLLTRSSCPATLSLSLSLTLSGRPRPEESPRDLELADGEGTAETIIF
Experiment: Vasopressin V1b receptor binding test
Details: membranes of CHO-K1 cells with human V1b receptor, displacement of 1.5 nM 3H-AVP; for compounds with more than one stereogenic center the diastereomer with greater affinity
Procedure: Vasopressin V1b Receptor Binding Test:
The test substances were dissolved at a concentration of 10^−2 M in DMSO, and were further diluted to 5×10^−4 M to 5×10^−9 M in DMSO. This DMSO predilution series was diluted 1:10 with test buffer. In the test assay the substance concentration was further diluted to 1:5 (2% DMSO in the assay).
The membrane pellet was homogenized again as described and centrifuged, and was then taken up in 50 mM tris-HCl at pH 7.4, homogenized, and frozen in aliquots at −190° C. and stored in liquid nitrogen.
The incubation buffer was 50 mM tris, 10 mM MgCl2, and 0.1% BSA at pH 7.4. […] The nonspecific binding was determined using 1 μM AVP (Bachem #H1780). All determinations were performed in triplicate. After incubation (60 minutes at room temperature), the free radioligand was filtered off by vacuum filtration (Skatron 7000 cell harvester) through Wathman GF/B fiberglass filter mats, and the filters were transferred to scintillation vessels. The liquid scintillation measurement was conducted in a Model 2000 or 2200CA TriCarb unit (Packard). The measured cpm was converted to dpm using a standard quench series.
The binding parameters were calculated by nonlinear regression in SAS.
The affinities of the compounds according to the invention for human vasopressin receptor V1b were measured according to the above test, and the affinity constants (Ki) were determined.

SMILES	Ki [nM]
COCCN(C)Cc1ccc(OC)c(C2(N3CCC[C@H]3c3ncco3)C(=O)N(S(=O)(=O)c3ccc(OC)cc3)c3cc(Cl)ccc32)c1 (stereo partly drawn) [Example 34, 6-Chloro-1-(4-methoxybenzenesulfonyl)-3-(2-methoxy-5-{[(2-methoxyethyl)methylamino]methyl}phenyl)-3-((S)-2-oxazol-2-yl-pyrrolidin-1-yl)-1,3-dihydroindol-2-one]	100 to 1000
COc1ccc(S(=O)(=O)N2C(=O)C(c3cc(CN4CCN(C)CC4)ccc3OC)(N3CCC[C@H]3c3ncco3)c3ccc(Cl)cc32)cc1 (stereo partly drawn) [Example 35, 6-Chloro-1-(4-methoxybenzenesulfonyl)-3-[2-methoxy-5-(4-methylpiperazin-1-ylmethyl)phenyl]-3-((S)-2-oxazol-2-yl-pyrrolidin-1-yl)-1,3-dihydroindol-2-one]	100 to 1000
COc1ccc(S(=O)(=O)N2C(=O)C(c3cc(CN4CCOCC4)ccc3OC)(N3CCC[C@H]3c3ncco3)c3ccc(Cl)cc32)cc1 (stereo partly drawn) [Example 37, 6-Chloro-1-(4-methoxybenzenesulfonyl)-3-(2-methoxy-5-morpholin-4-ylmethylphenyl)-3-((S)-2-oxazol-2-yl-pyrrolidin-1-yl)-1,3-dihydroindol-2-one]	100 to 1000
COc1ccc(S(=O)(=O)N2C(=O)C(c3cc(CN4CCC4)ccc3OC)(N3CCC[C@H]3c3ncco3)c3ccc(Cl)cc32)cc1 (stereo partly drawn) [Example 38, 3-(5-Azetidin-1-ylmethyl-2-methoxyphenyl)-6-chloro-1-(4-methoxybenzenesulfonyl)-3-((S)-2-oxazol-2-yl-pyrrolidin-1-yl)-1,3-dihydroindol-2-one]	100 to 1000
COc1ccc(S(=O)(=O)N2C(=O)C(c3cc(CN4CCCC4)ccc3OC)(N3CCC[C@H]3c3ncco3)c3ccc(Cl)cc32)cc1 (stereo partly drawn) [Example 39, 6-Chloro-1-(4-methoxybenzenesulfonyl)-3-(2-methoxy-5-pyrrolidin-1-ylmethylphenyl)-3-((S)-2-oxazol-2-yl-pyrrolidin-1-yl)-1,3-dihydroindol-2-one]	100 to 1000
COc1ccc(S(=O)(=O)N2C(=O)C(c3cc(CN4CCCCC4)ccc3OC)(N3CCC[C@H]3c3ncco3)c3ccc(Cl)cc32)cc1 (stereo partly drawn) [Example 40, 6-Chloro-1-(4-methoxybenzenesulfonyl)-3-(2-methoxy-5-piperidin-1-ylmethylphenyl)-3-((S)-2-oxazol-2-yl-pyrrolidin-1-yl)-1,3-dihydroindol-2-one]	100 to 1000
COc1ccc(S(=O)(=O)N2C(=O)C(c3ccc(CN(C)C)cc3OC)(N3CCC[C@H]3c3ncco3)c3cc(C#N)ccc32)cc1 (stereo partly drawn) [Example 41, 5-Cyano-3-(4-dimethylaminomethyl-2-methoxyphenyl)-1-(4-methoxybenzenesulfonyl)-3-((S)-2-oxazol-2-yl-pyrrolidin-1-yl)-1,3-dihydroindol-2-one]	10 to 100
COc1ccc(S(=O)(=O)N2C(=O)C(c3ccc(CN4CCN(C)CC4)cc3OC)(N3CCC[C@H]3c3ncco3)c3cc(C#N)ccc32)cc1 (stereo partly drawn) [Example 42, 5-Cyano-1-(4-methoxybenzenesulfonyl)-3-[2-methoxy-4-(4-methylpiperazin-1-ylmethyl)phenyl]-3-((S)-2-oxazol-2-yl-pyrrolidin-1-yl)-1,3-dihydroindol-2-one]	10 to 100
COc1ccc(S(=O)(=O)N2C(=O)C(c3ccc(CN4CCOCC4)cc3OC)(N3CCC[C@H]3c3ncco3)c3cc(C#N)ccc32)cc1 (stereo partly drawn) [Example 43, 5-Cyano-1-(4-methoxybenzenesulfonyl)-3-(2-methoxy-4-morpholin-4-ylmethylphenyl)-3-((S)-2-oxazol-2-yl-pyrrolidin-1-yl)-1,3-dihydroindol-2-one]	100 to 1000
CNCc1ccc(OC)c(C2(N3CCC[C@H]3c3ncco3)C(=O)N(S(=O)(=O)c3ccc(OC)cc3)c3ccc(C#N)cc32)c1 (stereo partly drawn) [Example 45, 5-Cyano-1-(4-methoxybenzenesulfonyl)-3-(2-methoxy-5-methylaminomethylphenyl)-3-((S)-2-oxazol-2-yl-pyrrolidin-1-yl)-1,3-dihydroindol-2-one]	< 10
COc1ccc(S(=O)(=O)N2C(=O)C(c3cc(CN(C)C)ccc3OC)(N3CCC[C@H]3c3ncco3)c3cc(C#N)ccc32)cc1 (stereo partly drawn) [Example 46, 5-Cyano-3-(5-dimethylaminomethyl-2-methoxyphenyl)-1-(4-methoxybenzenesulfonyl)-3-((S)-2-oxazol-2-yl-pyrrolidin-1-yl)-1,3-dihydroindol-2-one]	10 to 100

Now from value to compound:

Ki [nM]	SMILES
< 10	CCNCc1ccc(OC)c(C2(N3CCC[C@H]3c3ncco3)C(=O)N(S(=O)(=O)c3ccc(OC)cc3)c3ccc(C#N)cc32)c1 (stereo partly drawn) [Example 47, 5-Cyano-3-(5-ethylaminomethyl-2-methoxyphenyl)-1-(4-methoxybenzenesulfonyl)-3-((S)-2-oxazol-2-yl-pyrrolidin-1-yl)-1,3-dihydroindol-2-one]
10 to 100	CCN(C)Cc1ccc(OC)c(C2(N3CCC[C@H]3c3ncco3)C(=O)N(S(=O)(=O)c3ccc(OC)cc3)c3ccc(C#N)cc32)c1 (stereo partly drawn) [Example 48, 5-Cyano-3-{5-[(ethylmethylamino)methyl]-2-methoxyphenyl}-1-(4-methoxybenzenesulfonyl)-3-((S)-2-oxazol-2-yl-pyrrolidin-1-yl)-1,3-dihydroindol-2-one]
10 to 100	CCN(CC)Cc1ccc(OC)c(C2(N3CCC[C@H]3c3ncco3)C(=O)N(S(=O)(=O)c3ccc(OC)cc3)c3ccc(C#N)cc32)c1 (stereo partly drawn) [Example 49, 5-Cyano-3-(5-diethylaminomethyl-2-methoxyphenyl)-1-(4-methoxybenzenesulfonyl)-3-((S)-2-oxazol-2-yl-pyrrolidin-1-yl)-1,3-dihydroindol-2-one]
< 10	CCCNCc1ccc(OC)c(C2(N3CCC[C@H]3c3ncco3)C(=O)N(S(=O)(=O)c3ccc(OC)cc3)c3ccc(C#N)cc32)c1 (stereo partly drawn) [Example 50, 5-Cyano-1-(4-methoxybenzenesulfonyl)-3-(2-methoxy-5-propylaminomethylphenyl)-3-((S)-2-oxazol-2-yl-pyrrolidin-1-yl)-1,3-dihydroindol-2-one]
10 to 100	COc1ccc(S(=O)(=O)N2C(=O)C(c3cc(CNC(C)C)ccc3OC)(N3CCC[C@H]3c3ncco3)c3cc(C#N)ccc32)cc1 (stereo partly drawn) [Example 52, 5-Cyano-3-[5-(isopropylaminomethyl)-2-methoxyphenyl]-1-(4-methoxybenzenesulfonyl)-3-((S)-2-oxazol-2-yl-pyrrolidin-1-yl)-1,3-dihydroindol-2-one]
10 to 100	COc1ccc(S(=O)(=O)N2C(=O)C(c3cc(CN(C)C(C)C)ccc3OC)(N3CCC[C@H]3c3ncco3)c3cc(C#N)ccc32)cc1 (stereo partly drawn) [Example 53, 5-Cyano-3-{5-[(isopropylmethylamino)methyl]-2-methoxyphenyl}-1-(4-methoxybenzenesulfonyl)-3-((S)-2-oxazol-2-yl-pyrrolidin-1-yl)-1,3-dihydroindol-2-one]
10 to 100	COc1ccc(S(=O)(=O)N2C(=O)C(c3cc(CNCCO)ccc3OC)(N3CCC[C@H]3c3ncco3)c3cc(C#N)ccc32)cc1 (stereo partly drawn) [Example 54, 5-Cyano-3-{5-[(2-hydroxyethylamino)methyl]-2-methoxyphenyl}-1-(4-methoxybenzenesulfonyl)-3-((S)-2-oxazol-2-yl-pyrrolidin-1-yl)-1,3-dihydroindol-2-one]
10 to 100	COCCN(C)Cc1ccc(OC)c(C2(N3CCC[C@H]3c3ncco3)C(=O)N(S(=O)(=O)c3ccc(OC)cc3)c3ccc(C#N)cc32)c1 (stereo partly drawn) [Example 55, 5-Cyano-1-(4-methoxybenzenesulfonyl)-3-(2-methoxy-5-{[(2-methoxyethyl)methylamino]methyl}phenyl)-3-((S)-2-oxazol-2-yl-pyrrolidin-1-yl)-1,3-dihydroindol-2-one]
< 10	COc1ccc(S(=O)(=O)N2C(=O)C(c3cc(CN4CCN(C)CC4)ccc3OC)(N3CCC[C@H]3c3ncco3)c3cc(C#N)ccc32)cc1 (stereo partly drawn) [Example 56, 5-Cyano-1-(4-methoxybenzenesulfonyl)-3-[2-methoxy-5-(4-methylpiperazin-1-ylmethyl)phenyl]-3-((S)-2-oxazol-2-yl-pyrrolidin-1-yl)-1,3-dihydroindol-2-one]
< 10	COc1ccc(S(=O)(=O)N2C(=O)C(c3cc(CN4CCNCC4)ccc3OC)(N3CCC[C@H]3c3ncco3)c3cc(C#N)ccc32)cc1 (stereo partly drawn) [Example 57, 5-Cyano-1-(4-methoxybenzenesulfonyl)-3-(2-methoxy-5-piperazin-1-ylmethylphenyl)-3-((S)-2-oxazol-2-yl-pyrrolidin-1-yl)-1,3-dihydroindol-2-one]
